Reference: ChEMBL document CHEMBL3638434, “1H-pyrrolo[2,3 b]-pyridine derivatives” (2014)

Molecular target: T1, 3-phosphoinositide-dependent protein kinase 1 (Homo sapiens, UniProt O15530)
T1 sequence (O15530 whole entry): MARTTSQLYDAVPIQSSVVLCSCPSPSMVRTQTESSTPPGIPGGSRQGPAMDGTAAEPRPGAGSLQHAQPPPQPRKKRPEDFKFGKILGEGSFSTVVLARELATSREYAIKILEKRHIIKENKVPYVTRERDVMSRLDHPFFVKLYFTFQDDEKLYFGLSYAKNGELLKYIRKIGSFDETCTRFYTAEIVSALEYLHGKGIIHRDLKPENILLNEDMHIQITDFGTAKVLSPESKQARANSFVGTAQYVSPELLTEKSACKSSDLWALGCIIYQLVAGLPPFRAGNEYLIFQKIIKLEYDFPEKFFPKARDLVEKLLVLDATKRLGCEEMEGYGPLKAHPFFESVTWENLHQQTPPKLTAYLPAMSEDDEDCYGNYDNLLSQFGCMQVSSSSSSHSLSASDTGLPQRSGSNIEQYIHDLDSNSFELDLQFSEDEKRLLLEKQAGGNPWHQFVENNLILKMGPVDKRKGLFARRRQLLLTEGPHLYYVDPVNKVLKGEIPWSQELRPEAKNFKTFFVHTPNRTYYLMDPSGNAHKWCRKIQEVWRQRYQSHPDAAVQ
Test: Inhibition Assay: The compound inhibits the target protein in the enzymatic PDK1 inhibition assay.

Row | IC50 [nM] | Compound
1 | 190 | CN(c1cccc(F)c1)c1cc(-c2c[nH]c3ncc(-c4cnn(C)c4)cc23)ncn1
2 | 7.9 | Cn1cc(-c2cnc3[nH]cc(-c4cc(N(CCC#N)c5ccccc5)nc(N)n4)c3c2)cn1
